Results as given in publication PMC12430278, “A Simple and Reliable Method for the Determination of Isorhapontigenin in Murine Biological Matrices: Application in a Tissue Distribution Study” (Molecules, 2025).
Read-outs that look alike come from different tables or passages of the source.

Assays:
[1] = Stability of ISO in tissue homogenates; format: in vitro ADME; conditions: mouse; for remaining at 6 h, 45 ng/mL / remaining at 6 h, 1600 ng/mL: read-out: Stability Remaining (%, Mean ± SD) Short-Term Stability (6 h on Ice)
Description: (§1) In bioanalysis, analyte stability in biological matrices is crucial for ensuring accurate and reliable quantification. Instability can result in degradation or transformation during sample collection, storage, or processing, potentially compromising data integrity and study outcomes. Therefore, the stability of ISO in plasma was thoroughly evaluated under various storage conditions (Table 5). Assessing ISO stability in intact tissues is challenging, as replicating the native tissue environment is difficult. Accordingly, only short-term stability (6 h on ice) was assessed in tissue homogenates (Table 6). For post-preparative stability, hepatic homogenate—the most complex matrix—was selected as a representative.
For tissue samples, namely brain, fat, heart, small intestine, large intestine, kidney, liver, lung, muscle, spleen, and stomach, approximately 35 mg of each tissue was weighed and finely minced with scissors. The samples were homogenized in a 0.2% ascorbic acid solution (freshly prepared daily) in 50% methanol (v/v) at a ratio of 1:5 (w/v) for up to three cycles using a high-throughput tissue homogenizer (Wonbio-L, Wonbio, Shanghai, China) operating at 60 Hz for 60 s per cycle. Subsequently, three volumes of acetonitrile (containing IS at 400 ng/mL) were added to one volume of tissue homogenate. Following vigorous vortexing, the samples were centrifuged at 1902× g for 10 min at 15 °C. The clear supernatant was carefully transferred into an HPLC vial.
(§2) The stability of ISO was evaluated under various storage conditions. Stock solution stability was assessed after storage at room temperature (25 °C) and –20 °C. The stability of ISO in plasma was examined under the following conditions: short-term storage (25 °C for 24 h), long-term storage (–80 °C for 52 days), three freeze–thaw cycles, and post-preparative stability (samples kept in an autosampler at 4 °C for more than 24 h). As it is difficult to evaluate ISO stability directly in tissues, only the short-term stability in tissue homogenates was assessed (6 h on ice). Similarly, post-preparative stability in processed tissue samples was assessed using liver homogenate as a representative, due to the complexity of the hepatic matrix. Stability was considered acceptable if 85–115% of the initial ISO concentration remained.

[2] = Biodistribution study in mice following oral administration; format: in vivo, C57BL/6 mice
Description: Following oral administration of ISO at a dose of 200 µmol/kg (equivalent to 51.7 mg/kg), three to four mice (n = 3 or 4) were euthanized at each predetermined time point (5, 10, 20, 40, 60, and 80 min), and biological samples were collected. ISO concentrations were quantified using our validated HPLC-UV method. Exposure levels (AUC) in plasma and other individual biological matrices were calculated based on the mean concentrations at each time point.
Specific pathogen-free C57BL/6 mice (male; 6–8 weeks old; weight: 18–21 g) were purchased through Shenzhen Glorybay Biotech Co. (Shenzhen, China). The animals had ad libitum access to food and water prior to dosing. ISO was administered as an aqueous suspension (vehicle: 0.3% sodium carboxymethylcellulose with 0.2% L-ascorbic acid; ISO concentration: 5 mg/mL) via oral gavage at a dose of 200 µmol/kg (equivalent to 51.7 mg/kg, dosing volume: 10.34 mL/kg). At each predetermined time point (5, 10, 20, 40, 60 and 80 min) three to four mice (n = 3 or 4) were euthanized through cervical dislocation. Blood samples were collected into heparinized centrifuge tubes and centrifuged to obtain plasma. Following blood collection, the mice were dissected, and major organs/tissues—including the brain, abdominal fat, heart, small intestine, large intestine, kidney, liver, lung, abdominal muscle, spleen, and stomach—were harvested. The organs and tissues were cut into small pieces and rinsed with isotonic saline before being blotted dry. All collected biological samples were placed on dry ice. At the end of the in vivo study, all samples were stored at –80 °C in a deep freezer until HPLC analysis.
Non-compartmental pharmacokinetic analysis was performed using WinNonlin Standard Version 1.0 (Scientific Consulting Inc., Apex, NC, USA). Plasma and tissue exposure, expressed as the area under the concentration–time curve (AUC), was calculated using the mean values of the individual mice.

[3] = mice, oral; cited from earlier work
[4] = design: method as in PMID 39456808; conditions: Sprague Dawley rats, two weeks daily oral 100 µmol/kg/day; cited from earlier work
[5] = cited from earlier work
[6] = Stability of ISO in plasma samples under various storage conditions; format: in vitro ADME; conditions: mouse plasma, read-out: Remaining (%, Mean ± SD)
Description: as §1
For the cleanup of plasma samples, three volumes of acetonitrile (containing IS at 400 ng/mL) were added to one volume of murine plasma to precipitate proteins. After vortexing for 20 s, the samples were centrifuged at 1503× g for 10 min at 4 °C. The supernatant was carefully transferred to a glass insert preloaded in an autosampler vial. During each HPLC analysis, 10 μL of supernatant was injected into the HPLC system. The minimum plasma volume required per analysis was 25 μL.
as §2

[7] = tested on: primary airway epithelial cells isolated from patients with chronic obstructive pulmonary disease (COPD); design: method as in PMID 28369685; conditions: RES as comparator; cited from earlier work

Question: For `COc1cc(/C=C/c2cc(O)cc(O)c2)ccc1O` [ISO, trans-3,5,4′-trihydroxy-3′-methoxystilbene], which remaining at 6 h, 45 ng/mL ([1]; brain homogenate, 45.0 ng/mL) is on record?
Answer: The remaining at 6 h, 45 ng/mL was 101 ± 2.1%.

Question: And the remaining at 6 h, 1600 ng/mL ([1]; brain homogenate, 1600 ng/mL)?
Answer: The remaining at 6 h, 1600 ng/mL was 95.9 ± 1.7%.

Question: What about the remaining at 6 h, 45 ng/mL ([1]; fat homogenate, 45.0 ng/mL) of the same molecule?
Answer: Its remaining at 6 h, 45 ng/mL is 101 ± 4.4%.

Question: And the remaining at 6 h, 1600 ng/mL ([1]; fat homogenate, 1600 ng/mL)?
Answer: The remaining at 6 h, 1600 ng/mL was 96.8 ± 2.5%.

Question: And the remaining at 6 h, 45 ng/mL ([1]; heart homogenate, 45.0 ng/mL)?
Answer: Its remaining at 6 h, 45 ng/mL is 93.8 ± 3.4%.

Question: And the remaining at 6 h, 1600 ng/mL ([1]; heart homogenate, 1600 ng/mL)?
Answer: The remaining at 6 h, 1600 ng/mL was 106 ± 2%.

Question: What about the remaining at 6 h, 45 ng/mL ([1]; kidney homogenate, 45.0 ng/mL) of the same molecule?
Answer: The remaining at 6 h, 45 ng/mL was 96.8 ± 2.6%.

Question: And the remaining at 6 h, 1600 ng/mL ([1]; kidney homogenate, 1600 ng/mL)?
Answer: The remaining at 6 h, 1600 ng/mL was 97.4 ± 2.8%.

Question: And the remaining at 6 h, 45 ng/mL ([1]; large intestine homogenate, 45.0 ng/mL)?
Answer: The remaining at 6 h, 45 ng/mL was 92.6 ± 2.9%.

Question: What about the remaining at 6 h, 1600 ng/mL ([1]; large intestine homogenate, 1600 ng/mL) of the same molecule?
Answer: Its remaining at 6 h, 1600 ng/mL is 90.3 ± 3.6%.

Question: What about the remaining at 24 h, 45 ng/mL ([1]; liver homogenate, 45.0 ng/mL, read-out: Stability Remaining (%, Mean ± SD) Post-Preparative Stability (More Than 24 h at 4 °C)) of the same molecule?
Answer: The remaining at 24 h, 45 ng/mL was 105 ± 2.2%.

Question: What about the remaining at 6 h, 45 ng/mL ([1]; liver homogenate, 45.0 ng/mL) of the same molecule?
Answer: Its remaining at 6 h, 45 ng/mL is 103 ± 2.1%.

Question: And the remaining at 24 h, 1600 ng/mL ([1]; liver homogenate, 1600 ng/mL, read-out: Stability Remaining (%, Mean ± SD) Post-Preparative Stability (More Than 24 h at 4 °C))?
Answer: The remaining at 24 h, 1600 ng/mL was 94.9 ± 1%.

Question: What about the remaining at 6 h, 1600 ng/mL ([1]; liver homogenate, 1600 ng/mL) of the same molecule?
Answer: The remaining at 6 h, 1600 ng/mL was 97.8 ± 1.2%.

Question: And the remaining at 6 h, 45 ng/mL ([1]; lung homogenate, 45.0 ng/mL)?
Answer: Its remaining at 6 h, 45 ng/mL is 97.3 ± 4%.

Question: What about the remaining at 6 h, 1600 ng/mL ([1]; lung homogenate, 1600 ng/mL) of the same molecule?
Answer: Its remaining at 6 h, 1600 ng/mL is 101 ± 1.7%.

Question: And the remaining at 6 h, 45 ng/mL ([1]; muscle homogenate, 45.0 ng/mL)?
Answer: Its remaining at 6 h, 45 ng/mL is 102 ± 5.5%.

Question: What about the remaining at 6 h, 1600 ng/mL ([1]; muscle homogenate, 1600 ng/mL) of the same molecule?
Answer: Its remaining at 6 h, 1600 ng/mL is 95 ± 2.5%.

Question: And the remaining at 6 h, 45 ng/mL ([1]; small intestine homogenate, 45.0 ng/mL)?
Answer: Its remaining at 6 h, 45 ng/mL is 91.8 ± 4.8%.

Question: What about the remaining at 6 h, 1600 ng/mL ([1]; small intestine homogenate, 1600 ng/mL) of the same molecule?
Answer: Its remaining at 6 h, 1600 ng/mL is 92.9 ± 3.8%.

Question: What about the remaining at 6 h, 45 ng/mL ([1]; spleen homogenate, 45.0 ng/mL) of the same molecule?
Answer: Its remaining at 6 h, 45 ng/mL is 92.7 ± 6%.

Question: What about the remaining at 6 h, 1600 ng/mL ([1]; spleen homogenate, 1600 ng/mL) of the same molecule?
Answer: The remaining at 6 h, 1600 ng/mL was 94.3 ± 4.3%.

Question: What about the remaining at 6 h, 45 ng/mL ([1]; stomach homogenate, 45.0 ng/mL) of the same molecule?
Answer: The remaining at 6 h, 45 ng/mL was 95 ± 2.9%.

Question: What about the remaining at 6 h, 1600 ng/mL ([1]; stomach homogenate, 1600 ng/mL) of the same molecule?
Answer: The remaining at 6 h, 1600 ng/mL was 97.2 ± 2.2%.

Question: And the “Time at which mean concentrations in plasma and multiple tissues peak” value ([2]; oral suspension, 200 µmol/kg (51.7 mg/kg))?
Answer: Its value is 10 min.

Question: What about the “Exposure (AUC) ranking across plasma and tissues” value ([2]; oral, 200 µmol/kg (51.7 mg/kg), AUC from mean concentrations, 5-80 min) of the same molecule?
Answer: Its value is “stomach > small intestine > liver > large intestine > plasma > kidney > heart > spleen > lung > muscle”.

Question: And the “Penetration into brain and fat” value ([2]; oral, 200 µmol/kg, brain and fat samples, quantifiable levels printed as ≥75 ng/mL)?
Answer: Its value is “only a few reached quantifiable levels”.

Question: And the “Detectability of ISO in the kidney, liver, and heart over time” value ([2]; oral, 200 µmol/kg, kidney, liver, heart)?
Answer: The value was “undetectable in some mice as early as 20 min”.

Question: What about the “Detectability of ISO in the lung and muscle over time” value ([2]; oral, 200 µmol/kg, lung, muscle) of the same molecule?
Answer: The value was “detectable in the lung and muscle mainly between 10 and 20 min”.

Question: And the “Quantifiability of ISO in plasma over time” value ([2]; oral, 200 µmol/kg, plasma)?
Answer: The value was “unquantifiable in one out of four mice by 40 min”.

Question: What about the “Time of peak plasma concentrations post-dosing” value [3] of the same molecule?
Answer: The value was at most 15 min.

Question: What about the Blood cholesterol levels [4] of the same molecule?
Answer: Its Blood cholesterol levels is “healthier blood cholesterol levels”.

Question: What about the Body weight gain [4] of the same molecule?
Answer: Its Body weight gain is “less body weight gain”.

Question: What about the Toxicity [4] of the same molecule?
Answer: The Toxicity was “no significant toxicity was observed”.

Question: What about the “Change in oral bioavailability after one-week repeated dosing” value ([5]; one-week repeated dosing) of the same molecule?
Answer: Its value is “did not result in any significant changes”.

Question: And the Absolute oral bioavailability ([5]; rats, oral)?
Answer: The Absolute oral bioavailability was 20–30%.

Question: What about the “Time of peak plasma concentrations post-dosing” value ([5]; rats, oral) of the same molecule?
Answer: Its value is at most 15 min.

Question: And the remaining at 45 ng/mL ([6]; 45.0 ng/mL, after three freeze and thaw cycles)?
Answer: Its remaining at 45 ng/mL is 101 ± 4.4%.

Question: And the remaining at 1248 h, 45 ng/mL ([6]; 45.0 ng/mL, long term-stability (−80 °C for 52 days))?
Answer: Its remaining at 1248 h, 45 ng/mL is 102 ± 1.9%.

Question: And the remaining at 24 h, 45 ng/mL ([6]; 45.0 ng/mL, post-preparative stability (autosampler at 4 °C for at least 24 h))?
Answer: The remaining at 24 h, 45 ng/mL was 102 ± 2.7%.

Question: What about the remaining at 24 h, 45 ng/mL ([6]; 45.0 ng/mL, short-term stability (24 h at room temperature)) of the same molecule?
Answer: The remaining at 24 h, 45 ng/mL was 102 ± 3.7%.

Question: What about the remaining at 1600 ng/mL ([6]; 1600 ng/mL, after three freeze and thaw cycles) of the same molecule?
Answer: The remaining at 1600 ng/mL was 105 ± 1.1%.

Question: And the remaining at 1248 h, 1600 ng/mL ([6]; 1600 ng/mL, long term-stability (−80 °C for 52 days))?
Answer: Its remaining at 1248 h, 1600 ng/mL is 106 ± 2.1%.

Question: What about the remaining at 24 h, 1600 ng/mL ([6]; 1600 ng/mL, post-preparative stability (autosampler at 4 °C for at least 24 h)) of the same molecule?
Answer: Its remaining at 24 h, 1600 ng/mL is 101.7 ± 1%.

Question: And the remaining at 24 h, 1600 ng/mL ([6]; 1600 ng/mL, short-term stability (24 h at room temperature))?
Answer: Its remaining at 24 h, 1600 ng/mL is 101.7 ± 0.9%.

Question: And the “Anti-COPD activity compared with RES” value [7]?
Answer: The value was “stronger anti-COPD activity than RES”.
